Laboratory results: PubChem BioAssay AID330 (DTP/NCI, 2004)
Values joined by “and” are separate entries in the source; they are usually repeats but may differ in a detail not shown here. Identical values can stand only once. Toxic doses and inconclusive results are not listed.

Tested on: P388 leukemia ip, CD2F1 mice, survival T/C
Assay: NCI In Vivo Anticancer Drug Screen. Data for tumor model P388 Leukemia (intraperitoneal) in CD2F1 (CDF1) mice
Conditions: endpoint: median survival time, higher = longer survival
Method in brief: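 Mice carrying the transplanted tumor received test compound or vehicle. Survival was recorded in each group, and the value is the treated-group measurement divided by that of the vehicle-treated control group.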

Structure (SMILES): CC(C)(O)[C@@H]1CC(=O)[C@]2(C)[C@H](CC[C@@]3(C)C(c4ccoc4)OC(=O)[C@H]4O[C@]432)[C@@]1(C)/C=C/C(=O)O (some centres not stated)
- T/C (dose: 0.75 mg/kg/injection, schedule: Q01DX009 (ip), vehicle: saline + alcohol): 98 % of control
- T/C (dose: 1.5 mg/kg/injection, schedule: Q01DX009 (ip), vehicle: saline + alcohol): 100 % of control
- T/C (dose: 3.0 mg/kg/injection, schedule: Q01DX009 (ip), vehicle: saline + alcohol): 97 % of control
- T/C (dose: 6.0 mg/kg/injection, schedule: Q01DX009 (ip), vehicle: saline + alcohol): 99 % of control

Structure (SMILES): Cc1cn(C)c2c1-c1oncc1CC2
- T/C (dose: 100.0 mg/kg/injection, schedule: Q04DX003 (ip), vehicle: Klucel (hydroxypropylcellulose) (HPC)): 100 % of control
- T/C (dose: 200.0 mg/kg/injection, schedule: Q04DX003 (ip), vehicle: Klucel (hydroxypropylcellulose) (HPC)): 100 % of control
- T/C (dose: 400.0 mg/kg/injection, schedule: Q04DX003 (ip), vehicle: Klucel (hydroxypropylcellulose) (HPC)): 100 % of control

Structure (SMILES): Cn1cnc2c(N(CCO)CCO)ncnc21
- T/C (dose: 50.0 mg/kg/injection, schedule: Q01DX005 (ip), vehicle: distilled water + Tween-80 + alcohol): 109 % of control
- T/C (dose: 100.0 mg/kg/injection, schedule: Q01DX005 (ip), vehicle: distilled water + Tween-80 + alcohol): 105 % of control
- T/C (dose: 200.0 mg/kg/injection, schedule: Q01DX005 (ip), vehicle: distilled water + Tween-80 + alcohol): 106 % of control

Structure (SMILES): N#CC/C(=N\Nc1ccc([N+](=O)[O-])cc1[N+](=O)[O-])c1ccccc1
- T/C (dose: 100.0 mg/kg/injection, schedule: Q04DX003 (ip), vehicle: saline with Tween-80): 100 % of control
- T/C (dose: 200.0 mg/kg/injection, schedule: Q04DX003 (ip), vehicle: saline with Tween-80): 90 % of control
- T/C (dose: 400.0 mg/kg/injection, schedule: Q04DX003 (ip), vehicle: saline with Tween-80): 95 % of control

Structure (SMILES): COC1=C/C(=C\N(O)C(C)(C)CO)C=CC1=O
- T/C (dose: 50.0 mg/kg/injection, schedule: Q01DX009 (ip), vehicle: saline with Tween-80): 99 % of control
- T/C (dose: 100.0 mg/kg/injection, schedule: Q01DX009 (ip), vehicle: saline with Tween-80): 91 % of control
- T/C (dose: 200.0 mg/kg/injection, schedule: Q01DX009 (ip), vehicle: saline with Tween-80): 91 % of control

Structure (SMILES): COc1cc([C@@H]2c3cc4c(cc3[C@@H](OC3OC5CO[C@@H](c6cccs6)OC5C(O)C3O)[C@H]3COC(=O)[C@H]23)OCO4)cc(OC)c1O (some centres not stated)
- T/C (dose: 0.25 mg/kg/injection, schedule: Q01DX009 (ip), vehicle: saline): 170 % of control
- T/C (dose: 0.5 mg/kg/injection, schedule: Q01DX009 (ip), vehicle: saline): 208 % of control
- T/C (dose: 0.75 mg/kg/injection, schedule: Q01DX005 (iv), vehicle: saline): 100 % of control
- T/C (dose: 1.0 mg/kg/injection, schedule: Q01DX009 (ip), vehicle: saline): 261 % of control
- T/C (dose: 1.5 mg/kg/injection, schedule: Q01DX005 (iv), vehicle: saline): 104 % of control
- T/C (dose: 2.0 mg/kg/injection, schedule: Q01DX005 (ip), vehicle: saline): 155 % of control
- T/C (dose: 2.0 mg/kg/injection, schedule: Q01DX009 (ip), vehicle: saline): 157 % of control and 449 % of control
- T/C (dose: 3.0 mg/kg/injection, schedule: Q01DX005 (iv), vehicle: saline): 99 % of control
- T/C (dose: 3.24 mg/kg/injection, schedule: Q04DX003 (ip), vehicle: clinical formulation): 225 % of control
- T/C (dose: 3.89 mg/kg/injection, schedule: Q04DX003 (ip), vehicle: saline): 166 % of control
- T/C (dose: 4.0 mg/kg/injection, schedule: Q01DX005 (ip), vehicle: saline): 166 % of control
- T/C (dose: 5.4 mg/kg/injection, schedule: Q04DX003 (ip), vehicle: clinical formulation): 239 % of control
- T/C (dose: 6.0 mg/kg/injection, schedule: Q01DX005 (ip), vehicle: saline): 167 % of control
- T/C (dose: 6.0 mg/kg/injection, schedule: Q01DX005 (iv), vehicle: saline): 116 % of control
- T/C (dose: 6.48 mg/kg/injection, schedule: Q04DX003 (ip), vehicle: clinical formulation): 170 % of control
- T/C (dose: 6.48 mg/kg/injection, schedule: Q04DX003 (ip), vehicle: saline): 163 % of control
- T/C (dose: 7.78 mg/kg/injection, schedule: Q04DX003 (ip), vehicle: saline): 175 % of control
- T/C (dose: 8.0 mg/kg/injection, schedule: Q01DX005 (ip), vehicle: saline): 222 % of control
- T/C (dose: 9.0 mg/kg/injection, schedule: Q04DX003 (ip), vehicle: clinical formulation): 371 % of control
- T/C (dose: 10.8 mg/kg/injection, schedule: Q04DX003 (ip), vehicle: clinical formulation): 203 % of control
- T/C (dose: 10.8 mg/kg/injection, schedule: Q04DX003 (ip), vehicle: saline): 211 % of control
- T/C (dose: 13.0 mg/kg/injection, schedule: Q04DX002 (ip), vehicle: saline): 168 % of control
- T/C (dose: 13.0 mg/kg/injection, schedule: Q04DX003 (ip), vehicle: saline): 194 % of control
- T/C (dose: 15.0 mg/kg/injection, schedule: Q04DX003 (ip), vehicle: clinical formulation): 371 % of control
- T/C (dose: 16.0 mg/kg/injection, schedule: Q01DX005 (ip), vehicle: saline): 206 % of control
- T/C (dose: 18.0 mg/kg/injection, schedule: Q04DX003 (ip), vehicle: clinical formulation): 252 % of control
- T/C (dose: 18.0 mg/kg/injection, schedule: Q04DX003 (ip), vehicle: saline): 211 % of control
- T/C (dose: 21.6 mg/kg/injection, schedule: Q04DX002 (ip), vehicle: saline): 171 % of control
- T/C (dose: 21.6 mg/kg/injection, schedule: Q04DX003 (ip), vehicle: saline): 203 % of control
- T/C (dose: 25.0 mg/kg/injection, schedule: Q04DX003 (ip), vehicle: clinical formulation): 287 % of control
- T/C (dose: 30.0 mg/kg/injection, schedule: Q04DX003 (ip), vehicle: clinical formulation): 211 % of control
- T/C (dose: 30.0 mg/kg/injection, schedule: Q04DX003 (ip), vehicle: saline): 257 % of control
- T/C (dose: 36.0 mg/kg/injection, schedule: Q04DX003 (ip), vehicle: saline): 296 % of control
- T/C (dose: 60.0 mg/kg/injection, schedule: Q04DX002 (ip), vehicle: saline): 198 % of control
- T/C (dose: 60.0 mg/kg/injection, schedule: Q04DX003 (ip), vehicle: saline): 296 % of control
- T/C (dose: 100.0 mg/kg/injection, schedule: Q04DX002 (ip), vehicle: saline): 217 % of control
